Laboratory results: patent publication US20090005415A1, “1,2-Diarylimidazoles for Use as Cb1 Modulators” (priority 2005, published 2009)
Counter-ions that a name gives are not always drawn.

For `Cc1c(C(=O)NN2CCCCC2)nc(-c2ccc(Cl)cc2Cl)n1-c1ccc(OS(=O)(=O)c2ccc(Cl)s2)cc1` (as salt: hydrochloride) [Example 5, 5-Chloro-thiophene-2-sulfonic acid 4-[2-(2,4-dichloro-phenyl)-5-methyl-4-(piperidin-1-ylcarbamoyl)-imidazol-1-yl]-phenyl ester], which melting point is on record?
The melting point was 112 to 118 °C.

With `CCCS(=O)(=O)Oc1ccc(-n2c(-c3ccc(Cl)cc3Cl)nc(C(=O)NN3CCCCC3)c2C)cc1` (as salt: hydrochloride) [Example 9, Propane-1-sulfonic acid 4-[2-(2,4-dichloro-phenyl)-5-methyl-4-(piperidin-1-ylcarbamoyl)-imidazol-1-yl]-phenyl ester] as the compound, how does the melting point read?
Its melting point is 126 to 133 °C.

With `Cc1c(C(=O)NN2CCCCC2)nc(-c2ccc(Cl)cc2Cl)n1-c1ccc(OS(=O)(=O)CCCC(F)(F)F)cc1` (as salt: hydrochloride) [Example 3, 4,4,4-Trifluoro-butane-1-sulfonic acid 4-[2-(2,4-dichloro-phenyl)-5-methyl-4-(piperidin-1-ylcarbamoyl)-imidazol-1-yl]-phenyl ester] as the compound, how does the melting point read?
The melting point was 113 to 118 °C.

For `Cc1c(C(=O)NN2CCCCC2)nc(-c2ccc(Cl)cc2Cl)n1-c1ccc(OS(=O)(=O)c2cccnc2)cc1` (as salt: hydrochloride) [Example 4, Pyridine-3-sulfonic acid 4-[2-(2,4-dichloro-phenyl)-5-methyl-4-(piperidin-1-ylcarbamoyl)-imidazol-1-yl]-phenyl ester], which melting point is on record?
Its melting point is 205 to 209 °C.

For `Cc1c(C(=O)NN2CCCCC2)nc(-c2ccc(Cl)cc2Cl)n1-c1ccc(OS(=O)(=O)c2cccs2)cc1` (as salt: hydrochloride) [Example 7, Thiophene-2-sulfonic acid 4-[2-(2,4-dichloro-phenyl)-5-methyl-4-(piperidin-1-ylcarbamoyl)-imidazol-1-yl]phenyl ester], which melting point is on record?
Its melting point is 107 to 112 °C.

Which melting point does the source give for `Cc1c(C(=O)NN2CCCCC2)nc(-c2ccc(Cl)cc2Cl)n1-c1ccc(OS(=O)(=O)CCC(C)(C)C)cc1` (as salt: hydrochloride) [Example 6, 3,3-Dimethyl-butane-1-sulfonic acid 4-[2-(2,4-dichloro-phenyl)-5-methyl-4-(piperidin-1-ylcarbamoyl)-imidazol-1-yl]-phenyl ester] here?
The melting point was 152 to 156 °C.

Which melting point does the source give for `Cc1c(C(=O)NN2CCCCC2)nc(-c2ccc(Cl)cc2Cl)n1-c1ccc(OS(=O)(=O)CCC(F)(F)F)cc1` (as salt: hydrochloride) [Example 8, 3,3,3-Trifluoro-propane-1-sulfonic acid 4-[2-(2,4-dichloro-phenyl)-5-methyl-4-(piperidin-1-ylcarbamoyl)-imidazol-1-yl]-phenyl ester] here?
Its melting point is 183 to 186 °C.

Which melting point does the source give for `CCS(=O)(=O)Oc1ccc(-n2c(-c3ccc(Cl)cc3Cl)nc(C(=O)NN3CCCCC3)c2C)cc1` (as salt: hydrochloride) [Example 2, Ethanesulfonic acid 4-[2-(2,4-dichloro-phenyl)-5-methyl-4-(piperidin-1-ylcarbamoyl)-imidazol-1-yl]-phenyl ester] here?
Its melting point is 94 to 101 °C.

With `Cc1c(C(=O)NN2CCCCC2)nc(-c2ccc(Cl)cc2Cl)n1-c1ccc(OCc2ccccc2)cc1` (as salt: hydrochloride) [Example 1, 1-(4-Benzyloxy-phenyl)-2-(2,4-dichloro-phenyl)-5-methyl-1H-imidazole-4-carboxylic acid piperidin-1-ylamide] as the compound, how does the melting point read?
Its melting point is 195 to 198 °C.
